Key:
matriptase = target: T1, matriptase (Homo sapiens, UniProt Q9Y5Y6); assay: Determination of Ki values for the inhibition of matriptase (chromogenic substrate CH3SO2-D-HHT-Gly-Arg-pNA); assay type: biochemical; conditions: 25° C, pH 8.0, Dixon method, average of three determinations
T1 construct: Met-Lys-(His)6 (N, cleaved yes); made in house; host or cells: Escherichia coli BL21 (DE3), vector pET24
T1 sequence (Q9Y5Y6 615-854 limits assumed): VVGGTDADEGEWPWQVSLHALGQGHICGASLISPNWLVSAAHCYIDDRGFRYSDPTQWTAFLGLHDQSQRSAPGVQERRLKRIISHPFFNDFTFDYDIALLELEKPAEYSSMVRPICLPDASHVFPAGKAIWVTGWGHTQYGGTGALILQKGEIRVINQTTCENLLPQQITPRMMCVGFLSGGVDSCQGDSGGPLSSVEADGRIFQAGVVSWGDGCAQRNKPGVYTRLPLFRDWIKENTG
Procedure: Preparation of the Catalytic Domain of Matriptase
The steps were in detail:
Activation: Since a correctly processed N terminus is a precondition for the activity of serine proteases, it was necessary to delete the peptide MK(His)6 to activate the refolded matriptase. For this purpose, the refolding mixture was incubated with 2.5 mU per 50 μg of protein of activated DAPase™ (Qiagen) at 30° C. for 2 h, and the activated matriptase was separated from the non-activated matriptase and the DAPase by metal chelate chromatography.
The proteolytic activity was detected by cleavage of the chromogenic substrate Pefachrome tPA (Pentapharm).

[1] = tested on: matriptase-expressing colon carcinoma cell line DLD-1; assay: Inhibition of invasive growth (Matrigel invasion assay); assay type: cell-based; conditions: proHGF-stimulated; inhibitor 30 μM; 48 hours; FIG. 1
Excerpt: A common test system for invasive growth at the cellular level is the Matrigel invasion assay. This entails cells being applied to an artificial extracellular matrix and investigation of how many cells migrate through the latter within a defined period.
It is shown here by way of example for the matriptase inhibitors 37 and 54 that invasive growth is influenced and the migration of matriptase-expressing colon carcinoma cell line DLD-1 through Matrigel is inhibited:
The wells of a ‘Transwell’ plate were each coated with 10 μg of Matrigel and 160 000 DLD-1 cells (Dexter et al, Cancer Research 39: 1020-1025 (1979)) in 100 μl of medium (RPMI 1640, with 2% Ultroser HY serum substituted) were applied to each, invasive growth was stimulated by adding ProHGF in 400 μl of medium with and without inhibitor (30 μM). After incubation at 37° C. and 5% CO2 for 48 hours, the cells which had migrated through the matrix were fixed, stained and photographed at 100× magnification.

[2] = tested on: matriptase-expressing prostate carcinoma cells (PC-3); assay: Inhibition of proHGF-induced cell scattering (scatter assay); assay type: cell-based; conditions: proHGF-stimulated; inhibitor 3 μM; 6 days; FIG. 2
Excerpt: Because of its ability to induce the detachment of cells from an isolated assemblage and the dissemination of the cells, HGF is also referred to as scatter factor. This function can be detected at the cellular level with the aid of the so-called scatter assay. This entails the cells being seeded and their dissemination stimulated by the addition of HGF being recorded after a defined time. […] It is shown below by way of example for the matriptase inhibitors 37 and 54 that activation of proHGF by cellular matriptase is prevented and the scattering of proHGF-stimulated cells is reduced.
For this purpose, 500 matriptase-expressing prostate carcinoma cells (PC-3) were seeded in each well of a 96-well plate and incubated (37° C., 5% CO2) in 100 μl of medium without fetal calf serum (Nut Mix. F-12, 2% Ultroser HY) overnight, and then the scattering was stimulated by adding proHGF with and without matriptase inhibitors (3 μM). After 6 days, the cells were fixed and stained, and representative sections were photographed at 100× magnification.

Ki (matriptase) [nM]	Molecule	further results
360	N=C(N)c1cccc(CC(NS(=O)(=O)CCc2cccc3ccccc23)C(=O)N2CCC(CCN)CC2)c1 (stereo not drawn) [Compound 42]	
56	CC(C)c1cc(C(C)C)c(S(=O)(=O)NC(Cc2cccc(C(=N)N)c2)C(=O)N2CCN(C(=O)CCCNC(=N)N)CC2)c(C(C)C)c1 (stereo not drawn) [Compound 7]	
830	N=C(N)c1cccc(CC(NS(=O)(=O)c2ccc3ccccc3c2)C(=O)N2CCN(C(=O)CCN)CC2)c1 (stereo not drawn) [Compound 12]	
21000	N=C(N)c1cccc(CC(NC(=O)CNS(=O)(=O)c2ccc3ccccc3c2)C(=O)N2CCC(CCN)CC2)c1 (stereo not drawn) [Compound 44]	
1100	N=C(N)CC(=O)N1CCN(C(=O)C(Cc2cccc(C(=N)N)c2)NS(=O)(=O)c2ccc3ccccc3c2)CC1 (stereo not drawn) [Compound 62]	
890	N=C(N)NCCC(=O)N1CCN(C(=O)C(Cc2cccc(C(=N)N)c2)NC(=O)CNS(=O)(=O)c2ccc(S(=O)(=O)N3CCOCC3)cc2)CC1 (stereo not drawn) [Compound 51]	
74	N=C(N)NCCC1CCN(C(=O)C(Cc2cccc(C(=N)N)c2)NS(=O)(=O)c2cccc3ccccc23)CC1 (stereo not drawn) [Compound 41]	
400	N=C(N)c1cccc(CC(NS(=O)(=O)c2ccc3c(c2)CCCC3)C(=O)N2CCN(C(=O)CCN)CC2)c1 (stereo not drawn) [Compound 14]	
180	N=C(N)NCCC1CCN(C(=O)C(Cc2cccc(C(=N)N)c2)NS(=O)(=O)CCc2cccc3ccccc23)CC1 (stereo not drawn) [Compound 43]	
3400	N=C(N)c1cccc(CC(NS(=O)(=O)c2ccc3ccccc3c2)C(=O)N2CC(C(=O)N3CCN(C(=N)N)CC3)C2)c1 (stereo not drawn) [Compound 67]	
270	N=C(N)c1cccc(C[C@H](NS(=O)(=O)c2ccc3cc4ccccc4cc3c2)C(=O)N2CCN(C(=O)CCN)CC2)c1 [Compound 10, anthracenesulfonyl-Phe(3-Am)-Pzd-β-Ala]	
110	N=C(N)c1cccc(C[C@H](NS(=O)(=O)c2ccc3ccccc3c2)C(=O)N2CCC(CCN)CC2)c1 [Compound 36, 2-Nas-Phe(3-Am) 4(aminoethyl)piperidide]	
13000	N=C(N)c1cccc(CC(NS(=O)(=O)c2ccc3ccccc3c2)C(=O)N2CC(C(=O)N3CCNCC3)C2)c1 (stereo not drawn) [Compound 66]	
32	N=C(N)c1cccc(CC(NS(=O)(=O)c2ccc(C3CCCCC3)cc2)C(=O)N2CCC(C(=O)N3CCN(C(=N)N)CC3)CC2)c1 (stereo not drawn) [Compound 54]	
2400	N=C(N)c1cccc(CC(NS(=O)(=O)Cc2ccc3ccccc3c2)C(=O)N2CCN(C(=O)CCN)CC2)c1 (stereo not drawn) [Compound 25]	
300	N=C(N)NCCC(=O)N1CCN(C(=O)C(Cc2cccc(C(=N)N)c2)NS(=O)(=O)c2ccc3c(c2)CCCC3)CC1 (stereo not drawn) [Compound 15]	
7200	N=C(N)c1cccc(CC(NC(=O)CNS(=O)(=O)c2ccc3ccccc3c2)C(=O)N2CCN(C(=O)CCN)CC2)c1 (stereo not drawn) [Compound 40]	
9.8	N=C(N)NCCNC(=O)C1CCN(C(=O)C(Cc2cccc(C(=N)N)c2)NS(=O)(=O)c2ccc3c(c2)C(O)c2ccccc2C3O)CC1 (stereo not drawn) [Compound 32]	

Second part, the molecule before the results:

Molecule	Ki (matriptase) [nM]	further results
N=C(N)NCCC(=O)N1CCN(C(=O)C(Cc2cccc(C(=N)N)c2)NS(=O)(=O)Cc2ccc3ccccc3c2)CC1 (stereo not drawn) [Compound 26]	400	
Cc1c(C)c(S(=O)(=O)NC(Cc2cccc(C(=N)N)c2)C(=O)N2CCN(C(=O)CCN)CC2)c(C)c2c1OC(C)(C)C2 (stereo not drawn) [Compound 23]	3300	
N=C(N)c1cccc(CC(NC(=O)CNS(=O)(=O)c2ccc3ccccc3c2)C(=O)N2CCC(C(=O)NCCCNC(=O)OCc3ccccc3)CC2)c1 (stereo not drawn) [Compound 47]	3900	
CC(C)(C)c1ccc(S(=O)(=O)NC(Cc2cccc(C(=N)N)c2)C(=O)N2CCN(C(=O)CCN)CC2)cc1 (stereo not drawn) [Compound 21]	470	
N=C(N)c1cccc(CC(NS(=O)(=O)c2ccc(C3CCCCC3)cc2)C(=O)N2CCC(CCN)CC2)c1 (stereo not drawn) [Compound 45]	140	
N=C(N)c1cccc(CC(NS(=O)(=O)c2ccc(C3CCCCC3)cc2)C(=O)N2CCN(C(=N)N)CC2)c1 (stereo not drawn) [Compound 55]	980	
N=C(N)c1cccc(CC(NC(=O)CNS(=O)(=O)c2ccc3ccccc3c2)C(=O)N2CCC(C(=O)NCCCN)CC2)c1 (stereo not drawn) [Compound 48]	360	
N=C(N)NCCC1CCN(C(=O)C(Cc2cccc(C(=N)N)c2)NC(=O)CNS(=O)(=O)c2ccc3c(c2)Cc2ccccc2C3)CC1 (stereo not drawn) [Compound 68]	38	
2,4,6-triisopropylphenylsulfonyl-Phe(3Am)-iNip-NH—CH2—CH2-guanidino [Compound 34]	140	
CC(C)c1cc(C(C)C)c(S(=O)(=O)NC(Cc2cccc(C(=N)N)c2)C(=O)N2CCN(C(=O)C3CCN(C(=O)OC(C)(C)C)CC3)CC2)c(C(C)C)c1 (stereo not drawn) [Compound 65]	830	
N=C(N)c1cccc(CC(NS(=O)(=O)c2ccc(C3CCCCC3)cc2)C(=O)N2CCN(C(=O)CCN)CC2)c1 (stereo not drawn) [Compound 17]	140	
N=C(N)c1cccc(CC(NS(=O)(=O)c2ccc(C3CCCCC3)cc2)C(=O)N2CCNCC2)c1 (stereo not drawn) [Compound 58]	550	
N=C(N)c1cccc(CC(NS(=O)(=O)c2ccc(C3CCCCC3)cc2)C(=O)N2CCN(C(=O)C3CCNCC3)CC2)c1 (stereo not drawn) [Compound 60]	310	
N=C(N)c1cccc(CC(NS(=O)(=O)c2ccc(-c3ccccc3)cc2)C(=O)N2CCN(C(=O)CCN)CC2)c1 (stereo not drawn) [Compound 19]	600	
N=C(N)NCCC(=O)N1CCN(C(=O)[C@H](Cc2cccc(C(=N)N)c2)NS(=O)(=O)c2ccc3cc4ccccc4cc3c2)CC1 [Compound 11, anthracenesulfonyl-Phe(3-Am)-Pzd-CO—CH2—CH2-guanidino]	44	
N=C(N)NCCC1CCN(C(=O)[C@H](Cc2cccc(C(=N)N)c2)NS(=O)(=O)c2ccc3ccccc3c2)CC1.O=C(O)C(F)(F)F.O=C(O)C(F)(F)F [Compound 37, 2-Nas-Phe(3-Am) 4(guanidinoethyl)piperidide]		inhibition of migration/invasion of DLD-1 cells through Matrigel [1]: inhibited; inhibition of proHGF-induced scattering of PC-3 cells [2]: inhibit the proHGF-induced scattering of PC-3 cells
N=C(N)c1cccc(CC(NS(=O)(=O)c2cccc3c2CCCC3)C(=O)N2CCN(C(=O)CCN)CC2)c1 (stereo not drawn) [Compound 16]	990	
2,4,6-triisopropylphenylsulfonyl-Phe(3-Am)-iNip-DAE-H [Compound 3]	53	
N=C(N)CCNC(=O)C1CCN(C(=O)C(Cc2cccc(C(=N)N)c2)NS(=O)(=O)c2ccc3ccccc3c2)CC1 (stereo not drawn) [Compound 35]	160	
N=C(N)c1cccc(CC(NS(=O)(=O)c2ccc3c(c2)C(=O)c2ccccc2C3=O)C(=O)N2CCN(C(=O)CCN)CC2)c1 (stereo not drawn) [Compound 2]	160	
N=C(N)CCNC(=O)C1CCN(C(=O)C(Cc2cccc(C(=N)N)c2)NC(=O)CNS(=O)(=O)c2ccc3ccccc3c2)CC1 (stereo not drawn) [Compound 49]	160	
CC(C)(C)c1ccc(S(=O)(=O)NC(Cc2cccc(C(=N)N)c2)C(=O)N2CCN(C(=O)CCNC(=N)N)CC2)cc1 (stereo not drawn) [Compound 22]	200	
N=C(N)c1cccc(CC(NC(=O)CNS(=O)(=O)c2ccc(S(=O)(=O)N3CCOCC3)cc2)C(=O)N2CCN(C(=O)CCN)CC2)c1 (stereo not drawn) [Compound 50]	3500	
N=C(N)c1cccc(CC(NS(=O)(=O)c2cccc3ccccc23)C(=O)N2CCC(CCN)CC2)c1 (stereo not drawn) [Compound 39]	170	
N=C(N)c1cccc(CC(NS(=O)(=O)c2ccc3c(c2)C(=O)c2ccccc2C3=O)C(=O)N2CCN(C(=O)C3CNC3)CC2)c1 (stereo not drawn) [Compound 27]	460	
N=C(N)CC(=O)N1CCN(C(=O)C(Cc2cccc(C(=N)N)c2)NS(=O)(=O)c2ccc(C3CCCCC3)cc2)CC1 (stereo not drawn) [Compound 61]	380	

Reference: patent US7772251B2, “N-sulphonylated amino acid derivatives, method for the production and use thereof” (The Medicines Company (Leipzig) GmbH, priority 2003, dated 2010)
